We go through 2 compounds from patent publication US20210260213A1, “METHODS AND COMPOSITIONS FOR DELIVERY OF A THERAPEUTIC AGENT” (priority 2018, published 2021).

A word on the zone of inhibition: it is the size of the clear area around the sample on an inoculated plate.

The conditions of experiment [1]: published studies; cited from earlier work.
For the next experiment, the system named is MRSA. In words: Filter disc zone of inhibition on Mueller Hinton plates. In kind it is cell-based. The procedure:
(§1) Antimicrobial activity of the released drug was tested on Pseudomonas aeruginosa and MRSA cultures and compared to standard concentrations of antibiotic using filter disks on Mueller Hinton plates. The released antibiotics or controls were added onto sterile filter discs (created using a standard hole punch on filter paper, autoclaved). One colony of each bacteria was selected and (pseudomonas or MRSA) placed into a bacteria culture tube and were incubated in 5 mL of LB broth and placed on 37° C. shaker for approximately 4-6 hours.
(§2) 500 μL of the incubated bacteria was then added to the Mueller-Hinton Plates (which have been acclimated to room temperature for at least 2 hours) and a plastic disposable spreader was used to carefully spread the bacteria broth onto the plates and allowed to settle for approximately 5-10 minutes. The filter discs were then placed on top of the bacterial plate and the plates inverted and placed in the 37° C. incubator overnight. After 24 hours, the plates were removed and the zones of inhibition measured and photographed. Parafilm was used to wrap around each plate to keep the plates at room temperature.

In a further experiment the test system is Pseudomonas aeruginosa. The description is as above. The note with it: control study. Type of experiment: cell-based. The protocol: as §1, §2

In brackets after ≈: the same amount, converted by molar mass.

With `CN[C@H](CC(C)C)C(=O)N[C@H]1C(=O)N[C@@H](CC(N)=O)C(=O)N[C@H]2C(=O)N[C@H]3C(=O)N[C@H](C(=O)N[C@H](C(=O)O)c4cc(O)cc(O)c4-c4cc3ccc4O)[C@H](O)c3ccc(c(Cl)c3)Oc3cc2cc(c3O[C@@H]2O[C@H](CO)[C@@H](O)[C@H](O)[C@H]2O[C@H]2C[C@](C)(N)[C@H](O)[C@H](C)O2)Oc2ccc(cc2Cl)[C@H]1O` [Vancomycin], the minimum inhibitory concentration in experiment [1] is 2 µg/mL (≈ 1.38 µM). In the experiment with MRSA (Staphylococcus aureus, MRSA, control, 10 μg on a filter disc), this compound returned a zone of inhibition at 10 µg/disc of 8 mm. Further, the “amount sufficient to inhibit growth” value with MRSA (control study, filter disc) stood at 10 µg. Moreover, the zone of inhibition result with MRSA (drug released from the HA polymer, every collection between 1 hour and 7 days) is on record as “up to 15 mm”.

Consider `O=C(O)c1cn(C2CC2)c2cc(N3CCNCC3)c(F)cc2c1=O` [Ciprofloxacin], for which, in experiment [1], the minimum inhibitory concentration was 0.5 µg/mL (≈ 1.51 µM). For the same compound, in the experiment with Pseudomonas aeruginosa, the “amount sufficient to inhibit growth” value amounted to 5 µg.
